Source: US9345700B2, “Compositions and methods useful for treating diseases” (Eutropics Pharmaceuticals, Inc., priority 2011, dated 2016)
“Also recorded” adds a separate entry of the source.

Legend:
SUDHL-6 = assay: In situ mitochondrial cytochrome c release assay, semi-permeabilized SUDHL-6; type: cell-based, human; details: 20 uM; BAX/BAK-functional cell line
Description: (§1) The on-target activity of compound II-19 was validated. Changes in mitochondrial integrity were observed utilizing anti-cytochrome c conjugated to Alexa488 (BD). When the mitochondria are intact, they retain cytochrome c and have bright, punctate staining with the antibody whereas cells with compromised mitochondrial integrity will lose cytochrome c and will not stain with the antibody. This can be observed by microscopy as well as measured by a shift in fluorescence on the FL1 channel of a flow cytometer.
(§2) The selective response of mitochondria in semi-permeabilized cell lines to the compounds was observed. The assay was adapted from (Campos et al. (2006) Cytometry Part A. 69 (A):515-523).
(§3) Suspension cell lines SUDHL10 and SUDHL6 were grown in RPMI, washed once in 1×PBS and re-suspended at a concentration of 2e6/ml in assay buffer with 0.0025% Digitonin. Assay buffer; 300 mM Trehalose, 10 mM HEPES-KOH pH 7.7, 80 mM KCl, 1 mM EGTA, 1 mM EDTA, 0.1% BSA, 5 mM Succinate. Cells are incubated with test and control compounds at 10^6 cells/treatment for 1 hour at room temperature. Samples are fixed with 4% formaldehyde in PBS for 20 minutes, washed once in PBS, and blocked with 2% FBS/0.5% TritonX-100 in PBS. Samples are re-suspended in blocking buffer with 1:250 anti-cytochrome c conjugated to Alexa488 (BD Cat#56028) for 1 hour at 4° C., washed once with blocking buffer and re-suspended in 200 ul PBS. Cytochrome c loss was measured by microscopy. At least 100 cells per treatment were counted and scored as positive for cytochrome c loss if they lacked staining. In both methods DMSO was calculated as 0% cytochrome c loss and the Bim response for DHL6 was used to determine 100% cytochrome c loss.

SUDHL-10 = assay: In situ mitochondrial cytochrome c release assay, semi-permeabilized SUDHL-10; type: cell-based, human; details: 20 uM; BAX/BAK-deficient cell line
Description: as §1, §2, §3

[1] = test system: mitochondria from NCI 929; assay: BH3 profiling of mitochondria isolated from NCI 929; type: cell-based; details: isolated mitochondria of NCI 929
Description: As another test of the ability of BH3 profiling to detect in vivo Mcl-1 dependence, the cancer cell line NCI 929 (obtained from ATCC) is examined. Mitochondria are isolated from this cell line and exposed to the panel of BH3 peptides in Table 1 and to compounds of Formula I or Formula II. MOMP is quantitated by JC-1 fluorescence and cytochrome c release is quantitated by ELISA as described in Examples 4 and 5. NCI 929 cells are sensitive to treatment with compounds of Formula I or Formula II in vitro. […] On the other hand, treatment of the mitochondria with compounds of Formula I or Formula II induces MOMP as measured by a decrease in the red JC-1 aggregate fluorescence and as measured by an increase in cytochrome c release. This provides support that compounds of formula identified Formula I or Formula II can substitute for Noxa in the mitochondrial BH3 profiling assay and that the mitochondrial response to these compounds is a powerful predictor of what cells are sensitive to Mcl-1 inhibiting drugs in vitro and in vivo.

Row | Molecule | release of cytochrome c in SUDHL-6 (SUDHL-6) | release of cytochrome c in SUDHL-10 (SUDHL-10) | mitochondrial response to BH3 peptide [1]
1 | O=C(Nc1cccnc1)c1cc(-c2cn[nH]c2)nc2ccc(-c3ccccc3)cc12 [Compound 38, 6-phenyl-2-(1H-pyrazol-4-yl)-N-(pyridin-3-yl)quinoline-4-carboxamide] | activity; also recorded: cause release of cytochrome c | lack of activity and not | –
2 | O=C(Nc1ccccc1)c1cc(-c2ccco2)nc2ccc(-c3ccc4scnc4c3)cc12 [Compound 33, 6-(benzo[d]thiazol-5-yl)-2-(furan-2-yl)-N-phenylquinoline-4-carboxamide] | activity; also recorded: cause release of cytochrome c | lack of activity and not | –
3 | Bad: Bcl-xL reactive BH3 domain peptide Bad from the Table 1 panel (LWAAQRYGRELRRMSDEFEGSFKGL) | – | – | lacking a response
4 | O=C(Nc1cccnc1)c1cc(-c2cnn(C3CCCCO3)c2)nc2ccc(-c3ccccc3)cc12 (stereo not drawn) [Compound 37, 6-phenyl-N-(pyridin-3-yl)-2-(1-(tetrahydro-2H-pyran-2-yl)-1H-pyrazol-4-yl)quinoline-4-carboxamide] | activity; also recorded: cause release of cytochrome c | lack of activity and not | –
5 | O=C(Nc1cccnc1)c1cc(-c2ccco2)nc2ccc(-c3ccc4scnc4c3)cc12 [Compound 18, 6-(benzo[d]thiazol-5-yl)-2-(furan-2-yl)-N-(pyridin-3-yl)quinoline-4-carboxamide] | activity; also recorded: cause release of cytochrome c | lack of activity and not | –
